Results: ChEMBL document CHEMBL5620362 (Eur J Med Chem, 2023)
Active and inactive are the calls of the source. The rule behind the calls is not given here.

Legend:
HPAF-II [1] = assay: Downregulation of phosphorylated MEK expression in human HPAF-II cells at 0.1 to 1 uM incubated for 48 hrs by Western blot analysis; assay type: functional, cell-based; conditions: dose 0.1-1 µM
[2] = Toxicity in nude Balb/cA mouse xenografted with human HPAF-II cells assessed as body weight loss at 15 mg/kg, ip qd measured for 12 days; assay type: organism-based; conditions: in vivo, 288 h, time 12 day
NCI-H23 [3] = assay: Induction of apoptosis in human NCI-H23 cells assessed as necrotic cells at 10 uM incubated for 48 hrs by Annexin V-FITC/PI staining based flow cytometry (reference value: 0.78 %); assay type: functional
HPAF-II [4] = assay: Induction of apoptosis in human HPAF-II cells assessed as late apoptotic cells at 10 uM incubated for 48 hrs by Annexin V-FITC/PI staining based flow cytometry (reference value: 1.28 %); assay type: functional
NCI-H23 [5] = assay: Induction of apoptosis in human NCI-H23 cells assessed as viable cells at 0.1 uM incubated for 48 hrs by Annexin V-FITC/PI staining based flow cytometry (reference value: 92.16 %); assay type: functional; conditions: read-out: Activity
[6] = Half life in ICR mouse at 10 mg/kg, po; assay type: ADME, organism-based; conditions: in vivo
BXPC-3 = assay: Anticancer activity against human BXPC-3 cells incubated for 72 hrs; assay type: functional, cell-based
NCI-H23 [7] = assay: Induction of apoptosis in human NCI-H23 cells assessed as early apoptotic cells at 0.1 uM incubated for 48 hrs by Annexin V-FITC/PI staining based flow cytometry (reference value: 4.17 %); assay type: functional
NCI-H23 [8] = assay: Induction of apoptosis in human NCI-H23 cells assessed as early apoptotic cells at 1 uM incubated for 48 hrs by Annexin V-FITC/PI staining based flow cytometry (reference value: 4.17 %); assay type: functional
HPAF-II [9] = assay: Induction of apoptosis in human HPAF-II cells assessed as necrotic cells at 0.1 uM incubated for 48 hrs by Annexin V-FITC/PI staining based flow cytometry (reference value: 8.09 %); assay type: functional
HPAF-II [10] = assay: Inhibition of colony formation in human HPAF-II cells harboring siROR-gamma 0.1 uM incubated for 6 to 7 days by crystal violet staining based analysis; assay type: functional, cell-based; conditions: time 6-7 day
HPAF-II [11] = assay: Anticancer activity against human HPAF-II cells incubated for 72 hrs; assay type: functional, cell-based
HPAF-II [12] = assay: Induction of apoptosis in human HPAF-II cells assessed as viable cells at 0.01 uM incubated for 48 hrs by Annexin V-FITC/PI staining based flow cytometry (reference value: 89.73 %); assay type: functional; conditions: read-out: Activity
HPAF-II [13] = assay: Induction of apoptosis in human HPAF-II cells assessed as viable cells at 0.1 uM incubated for 48 hrs by Annexin V-FITC/PI staining based flow cytometry (reference value: 89.73 %); assay type: functional; conditions: read-out: Activity
HPAF-II [14] = assay: Antitumor activity against human HPAF-II cells xenografted in nude Balb/cA mouse assessed as tumor growth inhibition at 150 mg/kg, po qd measured for 12 days relative to control; assay type: functional; parameters: scale not given: the % may be the effect or the level left; conditions: time 12 day
NCI-H23 [15] = assay: Anticancer activity against human NCI-H23 cells incubated for 72 hrs; assay type: functional, cell-based

Question: Which Activity (HPAF-II [1]) does the source give for `C=C(C)[C@@H]1CC[C@]2(C(=O)NCCCN(C)C)CC[C@]3(C)[C@H](CC[C@@H]4[C@@]5(C)CC[C@H](O)C(C)(C)[C@@H]5CC[C@]43C)[C@@H]12` here?
Answer: Active

Question: What about the Activity [2] of the same compound?
Answer: 19%

Question: What about the Activity (NCI-H23 [3]) of the same compound?
Answer: 0.61%

Question: And the Activity (HPAF-II [4])?
Answer: 42.77%

Question: What about the viability at 0.1 µM (NCI-H23 [5]) of the same compound?
Answer: 79.5%

Question: And the half-life [6]?
Answer: 11.9 h

Question: And the Activity (BXPC-3)?
Answer: Active

Question: And the Activity (NCI-H23 [7])?
Answer: 3.45%

Question: What about the Activity (NCI-H23 [8]) of the same compound?
Answer: 67.63%

Question: What about the Activity (HPAF-II [9]) of the same compound?
Answer: 4.85%

Question: And the inhibition (HPAF-II [10])?
Answer: inactive

Question: And the Activity (HPAF-II [11])?
Answer: Active

Question: And the viability at 0.01 µM (HPAF-II [12])?
Answer: 82.6%

Question: What about the viability at 0.1 µM (HPAF-II [13]) of the same compound?
Answer: 59.3%

Question: And the Activity (HPAF-II [14])?
Answer: 39%

Question: And the Activity (NCI-H23 [15])?
Answer: Active
